Assay results reported in patent publication US5254731A, “Substituted 3,4-dihydronaphthalenes, pharmaceutical compositions containing them, and preparation processes” (Gruenenthal GmbH, priority 1991, dated 1993).

What was measured:
[1] = system: endotoxin/galactosamine-induced hepatitis; test: endotoxin/galactosamine-induced hepatitis in mice (septic shock model); format: in vivo, mouse; conditions: for Inhibition of increase of the enzymatic activity of GPT / Inhibition of increase of the enzymatic activity of SDH: i.p., 10 mg/kg for each of five administrations, serum, 8 hours after endotoxin; for shock mortality: endotoxin/galactosamine-induced hepatitis model
Experimental: To evaluate the effects of compounds according to the invention on septic shock, endotoxin/galactosamine-induced hepatitis in mice was used as test model. […] Intraperitoneal administration of compounds of formula I 30 minutes before, simultaneously with, and 2, 4 and 6 hours after administration of the endotoxin inhibits the hepatitis-induced increase of the activities of these enzymes in the serum. On administration of compounds of formula I in doses of 10 mg/kg for each of the five administrations, the following percentage inhibitions of the increase of the enzymatic activities of GPT and SDH were achieved (the increase of enzymatic activities in control animals who had been treated five times with a solution containing 1% by weight of sodium carboxymethylcellulose was set at 100%): […]

[2] = system: bronchoconstriction elicited by ovalbumin; test: anti-asthmatic effect: ovalbumin-elicited bronchoconstriction in anesthetized, passively sensitized guinea pigs; format: in vivo, guinea pig; conditions: Cavia porcellus, 1 h; oral, 60 minutes before ovalbumin 0.2 mg/kg i.v.; read-out: ED40 (40% average inhibition of the bronchoconstriction elicited by ovalbumin)
Experimental: The anti-asthmatic effect of compounds according to the invention was tested in anesthetized and ventilated guinea pigs. To induce an asthmatic reaction, the animals were passively sensitized by a single intraperitoneal injection of anti-ovalbumin serum. After 48 hours the asthmatic reaction was elicited by intravenous challenge with 0.2 mg/kg of ovalbumin. The immediately resulting bronchoconstriction was measured as an increase in intratracheal pressure. Effects caused by histamine, serotonin and sympathic counterreaction were eliminated by intravenous pretreatment with 2.15 mg/kg of mepyramine, 46.4 mg/kg of propranolol, 4.64 mg/kg of atropine and 1 mg/kg of methysergide, all administered 5 minutes before challenge. Substituted 3,4-dihydronaphthalenes were orally administered 60 minutes before the administration of ovalbumin.

[3] = comparative compound, aforementioned test model
[4] = comparative compounds of formula A, aforementioned test model

Row | Structure (SMILES) | Inhibition of increase of the enzymatic activity of GPT [1] | Inhibition of increase of the enzymatic activity of SDH [1] | ED40 [2] | other results
1 | COc1ccc2c(c1)CCC(CN(O)C(C)=O)=C2 [Example 1, N-[(6-methoxy-3,4-dihydronaphth-2-yl)methyl]acetohydroxamic acid] | 54% | 41% |  | 
2 | COc1ccc2c(c1)CCC(C(C)N(O)C(C)=O)=C2 (stereo not drawn) [Example 2, N-[1-(6-methoxy-3,4-dihydronaphth-2-yl)ethyl]acetohydroxamic acid] | 56% | 69% |  | 
3 | COc1ccc2c(c1)CCC(CN(O)C(N)=O)=C2 [Example 3, N-hydroxy-N-[(6-methoxy-3,4-dihydronaphth-2-yl)methyl]urea] | 78% | 57% | 33.5 mg/kg | 
4 | CC(=O)N(O)CC1=Cc2ccc(OC3CCCC3)cc2CC1 [Example 6a, N-[(6-cyclopentyloxy 3,4-dihydronaphth 2 yl)methyl]acetohydroxamic acid] |  |  | 275 mg/kg | 
5 | CC(C)Oc1ccc2c(c1)CCC(CN(O)C(N)=O)=C2 [Example 6e, N-hydroxy-N-[(6-isopropoxy-3,4-dihydronaphth-2-yl)methyl]urea] |  |  | 368 mg/kg | 
6 | NC(=O)N(O)CC1=Cc2ccc(OCc3ccccc3)cc2CC1 [Example A1, reference compound] |  |  |  | inhibition of GPT (in words) [1, 3]: did not cause either an inhibition of GPT; inhibition of SDH (in words) [1, 3]: did not cause either an inhibition of GPT and SDH; shock mortality [1]: did not cause either an inhibition of GPT and SDH or a decrease in the shock mortality
7 | CC(=O)N(O)CC1=Cc2ccc(OCc3ccccc3)cc2CC1 [Example A2, reference compound] |  |  |  | inhibition of GPT [1, 4]: 16%; inhibition of SDH [1, 4]: 32%; shock mortality [1]: no detectable influence on shock mortality
